Assay results published in ChEMBL document CHEMBL4251622, “Design, synthesis, and biological evaluation of polo-like kinase 1/eukaryotic elongation factor 2 kinase (PLK1/EEF2K) dual inhibitors for regulating breast cancer cells apoptosis and autophagy” (Eur J Med Chem, 2018).
pIC50: −log10 of the molar value. Active and inactive are the calls of the source. The rule behind the calls is not given here.

Tests used:
[1] = target: Serine/threonine-protein kinase PLK1 (Homo sapiens, UniProt P53350); experiment: Inhibition of full length human PLK1 at 20 uM using casein as substrate after 40 mins in presence of [gamma-33P]-ATP by radiometric assay relative to control
[2] = test system: BT-483; experiment: Cytotoxicity against human BT-483 cells after 24 hrs by MTT assay; type: functional, cell-based; conditions: BT-483, 24 h
[3] = target: T1, Eukaryotic elongation factor 2 kinase (Homo sapiens) (UniProt O00418); experiment: Inhibition of GST-tagged EEF2K (unknown origin) at 20 uM using biotinylated EEF2 peptide substrate by HTRF assay relative to control
T1 sequence (whole entry): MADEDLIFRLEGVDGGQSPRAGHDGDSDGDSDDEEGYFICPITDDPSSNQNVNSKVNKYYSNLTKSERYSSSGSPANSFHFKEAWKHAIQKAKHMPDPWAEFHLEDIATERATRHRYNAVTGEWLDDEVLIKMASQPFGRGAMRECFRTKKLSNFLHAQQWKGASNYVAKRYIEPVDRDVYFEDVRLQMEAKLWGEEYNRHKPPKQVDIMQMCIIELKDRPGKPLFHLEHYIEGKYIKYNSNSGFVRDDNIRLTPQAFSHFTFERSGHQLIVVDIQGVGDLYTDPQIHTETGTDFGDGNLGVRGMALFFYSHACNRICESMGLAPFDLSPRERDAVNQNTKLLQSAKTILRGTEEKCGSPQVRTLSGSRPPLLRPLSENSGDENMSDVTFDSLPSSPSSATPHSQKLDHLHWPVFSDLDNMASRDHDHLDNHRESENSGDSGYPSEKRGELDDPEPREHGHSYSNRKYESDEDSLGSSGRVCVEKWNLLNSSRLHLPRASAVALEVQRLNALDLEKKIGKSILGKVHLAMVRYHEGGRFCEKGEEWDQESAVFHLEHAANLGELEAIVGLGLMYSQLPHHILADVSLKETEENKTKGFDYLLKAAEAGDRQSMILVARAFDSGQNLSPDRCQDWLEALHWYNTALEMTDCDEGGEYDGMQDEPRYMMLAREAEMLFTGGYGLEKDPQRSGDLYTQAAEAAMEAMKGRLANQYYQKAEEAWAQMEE

[4] = test system: MCF7; experiment: Cytotoxicity against human MCF7 cells after 24 hrs by MTT assay; type: functional, cell-based; conditions: MCF7, 24 h
[5] = test system: ZR-75-1; experiment: Cytotoxicity against human ZR-75-1 cells after 24 hrs by MTT assay; type: functional, cell-based
[6] = test system: BT-474; experiment: Cytotoxicity against human BT474 cells after 24 hrs by MTT assay; type: functional, cell-based
[7] = test system: MDA-MB-468; experiment: Cytotoxicity against human MDA-MB-468 cells after 24 hrs by MTT assay; type: functional, cell-based
[8] = test system: SK-BR-3; experiment: Cytotoxicity against human SKBR3 cells after 24 hrs by MTT assay; type: functional, cell-based
[9] = test system: MDA-MB-231; experiment: Cytotoxicity against human MDA-MB-231 cells after 24 hrs by MTT assay; type: functional, cell-based

Sequence of Serine/threonine-protein kinase PLK1 (P53350 whole entry): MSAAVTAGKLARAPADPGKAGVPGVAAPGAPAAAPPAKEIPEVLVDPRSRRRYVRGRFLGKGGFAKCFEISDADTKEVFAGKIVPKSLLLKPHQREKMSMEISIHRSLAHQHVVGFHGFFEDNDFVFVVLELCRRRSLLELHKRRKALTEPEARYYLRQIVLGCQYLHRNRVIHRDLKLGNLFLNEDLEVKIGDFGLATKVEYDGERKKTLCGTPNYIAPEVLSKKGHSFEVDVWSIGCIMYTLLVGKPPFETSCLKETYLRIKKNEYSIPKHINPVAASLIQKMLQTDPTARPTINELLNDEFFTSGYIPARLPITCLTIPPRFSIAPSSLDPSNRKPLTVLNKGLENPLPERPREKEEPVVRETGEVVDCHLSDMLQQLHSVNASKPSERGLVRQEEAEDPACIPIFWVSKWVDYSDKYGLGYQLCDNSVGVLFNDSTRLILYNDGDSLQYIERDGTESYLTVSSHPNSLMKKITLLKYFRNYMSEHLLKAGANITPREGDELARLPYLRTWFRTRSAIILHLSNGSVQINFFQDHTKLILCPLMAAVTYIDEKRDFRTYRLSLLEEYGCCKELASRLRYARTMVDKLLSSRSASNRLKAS

Row | SMILES | inhibition [1] | pIC50 [2] | inhibition [3] | pIC50 [4] | Activity [5] | Activity [6] | Activity [7] | Activity [8] | Activity [9]
1 | CCNc1cc(-c2ccc(NC(=O)Nc3ccc(OC)cc3)cc2C)ccn1 | 45.8% | 4.59 | 33.4% | 5.00 | – | – | – | – | –
2 | CCNc1cc(-c2ccc(NC(=O)Nc3cccc(Cl)c3)cc2C)ccn1 | 82.7% | 4.78 | 73.4% | 5.38 | – | – | – | – | –
3 | O=C(Nc1cccc(Cl)c1)Nc1ccc(-c2ccnc(NCC3CC3)c2)c(C(F)(F)F)c1 | 63.8% | < 4.52 | 27.8% | 4.76 | – | – | – | – | –
4 | CCNc1cc(-c2ccc(NC(=O)Nc3ccccc3Cl)cc2C)ccn1 | 49.2% | < 4.52 | 21.7% | 5.08 | – | – | – | – | –
5 | CCNc1cc(-c2ccc(NC(=O)Nc3c(C)cccc3C)cc2OC)ccn1 | 54.4% | < 4.52 | – | 5.03 | – | – | – | – | –
6 | CCNc1cc(-c2ccc(NC(=O)Nc3ccc(C)cc3)cc2C)ccn1 | 47.5% | 4.66 | 35.4% | 5.04 | – | – | – | – | –
7 | CCCNc1cc(-c2ccc(NC(=O)Nc3ccc(C(F)(F)F)cc3)cc2C(F)(F)F)ccn1 | 51.3% | 4.73 | 33.3% | 5.11 | – | – | – | – | –
8 | CC[C@@H]1C(=O)N(C)c2cnc(Nc3ccc(C(=O)NC4CCC(N5CCN(CC6CC6)CC5)CC4)cc3OC)nc2N1C(C)C (some centres not stated) | – | – | – | – | Active | Active | Active | Active | Active
9 | CCNc1cc(-c2ccc(NC(=O)Nc3c(C)cccc3C)cc2C)ccn1 | 42.1% | < 4.52 | 8.7% | 5.10 | – | – | – | – | –
10 | CCNc1cc(-c2ccc(NC(=O)Nc3ccc(OC)cc3)cc2OC)ccn1 | 31.1% | < 4.52 | 9% | 4.76 | – | – | – | – | –
11 | CCNc1cc(-c2ccc(NC(=O)Nc3c(C)cccc3C)cc2C(F)(F)F)ccn1 | 59.2% | 4.66 | 44% | 5.16 | – | – | – | – | –
12 | CCNc1cc(-c2ccc(NC(=O)Nc3ccc(C(F)(F)F)cc3)cc2C)ccn1 | 54.8% | 4.71 | 55.3% | 5.16 | – | – | – | – | –
13 | CCNc1cc(-c2ccc(NC(=O)Nc3cccc(Cl)c3)cc2OC)ccn1 | 46.4% | 4.60 | 30.6% | 5.13 | – | – | – | – | –
14 | CCNc1cc(-c2ccc(NC(=O)Nc3ccc(C(F)(F)F)cc3)cc2F)ccn1 | 55.8% | 4.57 | 41.2% | 5.10 | – | – | – | – | –
15 | CCCNc1cc(-c2ccc(NC(=O)Nc3cccc(Cl)c3)cc2C(F)(F)F)ccn1 | 63% | 4.73 | 38.2% | 5.08 | – | – | – | – | –
16 | CCNc1cc(-c2ccc(NC(=O)Nc3ccc(C(F)(F)F)cc3)cc2OC)ccn1 | 40.7% | 4.59 | 34.6% | 4.71 | – | – | – | – | –
17 | CCNc1cc(-c2ccc(NC(=O)Nc3cccc4ccccc34)cc2C)ccn1 | 35.3% | < 4.52 | – | 4.81 | – | – | – | – | –
18 | CCNc1cc(-c2ccc(NC(=O)Nc3cc(C(F)(F)F)cc(C(F)(F)F)c3)cc2C(F)(F)F)ccn1 | 66.1% | < 4.52 | 37.2% | 5.22 | – | – | – | – | –
19 | CCNc1cc(-c2ccc(NC(=O)Nc3ccc(C)cc3)cc2C(F)(F)F)ccn1 | 42.6% | 4.57 | 37.9% | 5.02 | – | – | – | – | –
20 | CCNc1cc(-c2ccc(NC(=O)Nc3ccc(OC)cc3)cc2C(F)(F)F)ccn1 | 62.1% | 4.75 | 51.3% | 5.24 | – | – | – | – | –
21 | O=C(Nc1ccc(C(F)(F)F)cc1)Nc1ccc(-c2ccnc(NCC3CC3)c2)c(C(F)(F)F)c1 | 53.4% | < 4.52 | 15.1% | 4.81 | – | – | – | – | –
22 | CCNc1cc(-c2ccc(NC(=O)Nc3cccc4ccccc34)cc2C(F)(F)F)ccn1 | 54.1% | < 4.52 | -4.29% | 4.79 | – | – | – | – | –
23 | CCNc1cc(-c2ccc(NC(=O)Nc3ccccc3Cl)cc2C(F)(F)F)ccn1 | 71.6% | 4.68 | 53.6% | 5.43 | – | – | – | – | –
24 | CCNc1cc(-c2ccc(NC(=O)Nc3ccc(OC)cc3)cc2F)ccn1 | 47.1% | 4.71 | 34.4% | 4.85 | – | – | – | – | –
25 | CCNc1cc(-c2ccc(NC(=O)Nc3ccc(C(F)(F)F)cc3)cc2C(F)(F)F)ccn1 | 82.9% | 4.79 | 76.3% | 5.62 | – | – | – | – | –
26 | CCNc1cc(-c2ccc(NC(=O)Nc3ccccc3Cl)cc2OC)ccn1 | 53.6% | < 4.52 | 6.4% | 5.00 | – | – | – | – | –
27 | CCNc1cc(-c2ccc(NC(=O)Nc3cccc(Cl)c3)cc2F)ccn1 | 72.7% | 4.73 | 52.5% | 5.16 | – | – | – | – | –
